Test results from patent US20260062422A1 (Halda Therapeutics OpCo, Inc., priority 2022, published 2026).

Key:
[1] = system: T-Rex 293 cell line SC3 cells having increased expression of androgen receptor protein due to exposure to doxycycline; test: Cellular growth inhibition, T-Rex 293 SC3 cells with doxycycline (androgen receptor induced), CellTiter-Glo; type: cell-based; conditions: T-Rex 293 SC3 cells with 10 ng/mL doxycycline (increased androgen receptor expression)
Method in brief: (§1)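 GI50 came from a four-parameter fit of CellTiter-Glo 2.0 luminescence after 72 h compound exposure (0.5% DMSO, 37 °C), dosing 24 h post-seeding. SC3 clone cells (2500/well), transfected with wild-type androgen receptor, grew in charcoal-stripped serum medium lacking phenol red, induced with 10 ng/mL doxycycline or left uninduced.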

[2] = system: T-Rex 293 cell line SC3 cells lacking increased expression of androgen receptor protein; test: Cellular growth inhibition, T-Rex 293 SC3 cells without doxycycline, CellTiter-Glo; type: cell-based; conditions: T-Rex 293 SC3 cells not exposed to doxycycline, CellTiter-Glo 2.0
Method in brief: as §1

VCaP cells = test: Cellular growth inhibition assay for VCaP cells, CellTiter-Glo; type: cell-based, human; conditions: 72 hours treatment, CellTiter-Glo 2.0
Method in brief: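 GI50 values come from four-parameter curve fits of luminescence data normalized to a zero baseline. Compound, in medium with 0.5% DMSO, was added one day after plating and left for 72 h before CellTiter-Glo 2.0 addition.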

T47D cells = test: Cellular growth inhibition assay for T47D cells, CellTiter-Glo; type: cell-based, human; conditions: 72 hours treatment, CellTiter-Glo 2.0 cell viability
Method in brief: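 Luminescence from CellTiter-Glo 2.0 after 72 h of compound exposure gives the viability signal. Cells grew in insulin-supplemented (0.2 units/mL) DMEM with 10% FBS and were treated one day after seeding at 0.5% DMSO. GI50 values come from four-parameter nonlinear regression.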

Row | Compound | GI50 ([1]; 72 hours) | GI50 ([2]; 72 hours) | GI50 (VCaP cells) | GI50 (T47D cells) | GI50 ([1]; 72 h) | GI50 ([2]; 72 h) | GI50 (VCaP cells; Homo sapiens, VCaP, 72 h) | GI50 (T47D cells; Homo sapiens, T47D, 72 h)
1 | Cc1sc2c(c1C)C(c1ccc(C[C@H]3C[C@@H](OC4CCN(c5ncc(C(=O)N[C@H]6C(C)(C)[C@H](Oc7ccc(C#N)c(Cl)c7)C6(C)C)cn5)CC4)C3)cc1)=N[C@@H](Cc1ncco1)c1nnc(C)n1-2 [Compound I-427] | < 500 nM | > 3000 nM | < 500 nM | < 500 nM |  |  |  | 
2 | CC[C@@H]1N=C(c2ccc(N3CC(CC4CN(c5cnc(C(=O)N[C@H]6C(C)(C)[C@H](Oc7ccc(C#N)c(Cl)c7)C6(C)C)cn5)C4)C3)cc2)c2c(sc(C)c2C)-n2c(C)nnc21 [Compound I-607] |  |  |  |  | < 500 nM | > 3000 nM | > 3000 nM | < 500 nM
3 | Cc1sc2c(c1C)C(c1ccc(N3C4CC(=O)CC3CN(c3ncc(C(=O)N[C@H]5C(C)(C)[C@H](Oc6ccc(C#N)c(Cl)c6)C5(C)C)cn3)C4)cc1)=NC(Cc1ncco1)c1nnc(C)n1-2 (stereo partly drawn) [Compound I-654] | < 500 nM | < 500 nM |  |  |  |  | < 500 nM | < 500 nM
4 | Cc1sc2c(c1C)C(c1ccc(C#C[C@H]3C[C@@]4(CCCN(c5ncc(C(=O)N[C@H]6C(C)(C)[C@H](Oc7ccc(C#N)c(Cl)c7)C6(C)C)cn5)C4)C3)cc1)=N[C@@H](C)c1nnc(C)n1-2 [Compound I-379] | < 500 nM | > 3000 nM | < 500 nM | > 3000 nM |  |  |  | 
5 | Cc1sc2c(c1C)C(c1ccc(C(C)(C)N3CC4(CCCN(c5ncc(C(=O)N[C@H]6C(C)(C)[C@H](Oc7ccc(C#N)c(Cl)c7)C6(C)C)cn5)C4)C3)cc1)=N[C@@H](Cc1ncco1)c1nnc(C)n1-2 [Compound I-439] |  |  |  |  | < 500 nM | > 3000 nM | > 3000 nM | > 3000 nM
6 | Cc1sc2c(c1C)C(c1ccc(-c3cc(C4CCN(c5ncc(C(=O)N[C@H]6C(C)(C)[C@H](Oc7ccc(C#N)c(Cl)c7)C6(C)C)cn5)CC4)cs3)cc1)=N[C@@H](Cc1ncco1)c1nnc(C)n1-2 [Compound I-480] |  |  |  |  | < 500 nM | > 3000 nM | < 500 nM | > 3000 nM
7 | Cc1sc2c(c1C)C(c1ccc(OC3CC4(CCN(c5ccc(C(=O)N[C@H]6C(C)(C)[C@H](Oc7ccc(C#N)c(Cl)c7)C6(C)C)cn5)CC4)C3)cc1)=N[C@@H](Cc1ncco1)c1nnc(C)n1-2 [Compound I-170] |  |  |  |  | < 500 nM | > 3000 nM | < 500 nM | < 500 nM
8 | Cc1sc2c(c1C)C(c1ccc(CCC3CCN(c4ncc(C(=O)N[C@H]5C(C)(C)[C@H](Oc6ccc(C#N)c(Cl)c6)C5(C)C)cn4)CC3)cc1)=N[C@@H](Cc1ncco1)c1nnc(C)n1-2 [Compound I-132] |  |  |  |  | < 500 nM | > 3000 nM | < 500 nM | < 500 nM
9 | Cc1sc2c(c1C)C(c1ccc(CCCOC3CCN(c4ncc(C(=O)N[C@H]5C(C)(C)[C@H](Oc6ccc(C#N)c(Cl)c6)C5(C)C)cn4)CC3)cc1)=N[C@H](Cc1cccnc1)c1nnc(C)n1-2 [Compound I-217] |  |  |  |  | < 500 nM | > 3000 nM | < 500 nM | < 500 nM
10 | Cc1sc2c(c1C)C(c1ccc(C(=O)N3CCC[C@H](C(=O)c4ncc(C(=O)N[C@H]5C(C)(C)[C@H](Oc6ccc(C#N)c(Cl)c6)C5(C)C)cn4)C3)cc1)=N[C@@H](Cc1ncco1)c1nnc(C)n1-2 [Compound I-345] |  |  |  |  | > 3000 nM | > 3000 nM | > 3000 nM | 1500 to 3000 nM
11 | Cc1sc2c(c1C)C(c1ccc(N3CC(CC4CN(c5ccc(C(=O)N[C@H]6C(C)(C)[C@H](Oc7ccc(C#N)c(Cl)c7)C6(C)C)nc5)C4)C3)cc1)=N[C@@H](Cc1ncco1)c1nnc(C)n1-2 [Compound I-621] |  |  |  |  | < 500 nM | < 500 nM | < 500 nM | < 500 nM
12 | Cc1sc2c(c1C)C(c1ccc(C3CC(N4CCN(c5cnc(C(=O)N[C@H]6C(C)(C)[C@H](Oc7ccc(C#N)c(Cl)c7)C6(C)C)cn5)CC4)C3)cc1)=N[C@@H](C)c1nnc(C)n1-2 (stereo partly drawn) [Compound I-573] |  |  |  |  | < 500 nM | 500 to 1500 nM | < 500 nM | < 500 nM
13 | Cc1sc2c(c1C)C(c1ccc([C@H]3C[C@@H](C[C@@H]4CCCN(c5ncc(C(=O)N[C@H]6C(C)(C)[C@H](Oc7ccc(C#N)c(Cl)c7)C6(C)C)cn5)C4)C3)cc1)=N[C@@H](Cc1ncco1)c1nnc(C)n1-2 [Compound I-400] |  |  |  |  | > 3000 nM | > 3000 nM | > 3000 nM | > 3000 nM
14 | CC[C@@H]1N=C(c2ccc(N3CC(C4CCN(c5ncc(C(=O)N[C@H]6C(C)(C)[C@H](Oc7ccc(C#N)c(Cl)c7)C6(C)C)cn5)CC4)C3)cc2)c2c(sc(C)c2C)-n2c(C)nnc21 [Compound I-595] |  |  |  |  | < 500 nM | > 3000 nM | < 500 nM | > 3000 nM
15 | Cc1sc2c(c1C)C(c1ccc(CC3CCN(c4ncc(C(=O)N[C@H]5C(C)(C)[C@H](Oc6ccc(C#N)c(Cl)c6)C5(C)C)cn4)CC3)cc1)=N[C@@H](C)c1nnc(C)n1-2 [Compound I-557] |  |  |  |  | < 500 nM | < 500 nM | < 500 nM | > 3000 nM
16 | CC[C@@H]1N=C(c2ccc(CC3CC4(CCN(c5cnc(C(=O)N[C@H]6C(C)(C)[C@H](Oc7ccc(C#N)c(Cl)c7)C6(C)C)cn5)CC4)C3)cc2)c2c(sc(C)c2C)-n2c(C)nnc21 [Compound I-597] |  |  |  |  | > 3000 nM | > 3000 nM | < 500 nM | < 500 nM
17 | CCNC(=O)C[C@@H]1N=C(c2ccc(N3CCC(CN4CC(N(C)c5ncc(C(=O)N[C@H]6C(C)(C)[C@H](Oc7ccc(C#N)c(Cl)c7)C6(C)C)cn5)C4)CC3)cc2)c2c(sc(C)c2C)-n2c(C)nnc21 [Compound I-128] |  |  |  |  | > 3000 nM | > 3000 nM | 1500 to 3000 nM | 1500 to 3000 nM
18 | Cc1sc2c(c1C)C(c1ccc(O[C@H]3C[C@@]4(CCCN(c5ncc(C(=O)N[C@H]6C(C)(C)[C@H](Oc7ccc(C#N)c(Cl)c7)C6(C)C)cn5)C4)C3)cc1)=N[C@@H](Cc1ncco1)c1nnc(C)n1-2 [Compound I-193] |  |  |  |  | < 500 nM | 500 to 1500 nM | 500 to 1500 nM | < 500 nM
19 | Cc1sc2c(c1C)C(c1ccc(OC3CC4(CCN(c5ncc(C(=O)N[C@H]6C(C)(C)[C@H](Oc7ccc(C#N)c(Cl)c7)C6(C)C)cn5)CC4)C3)cc1)=N[C@@H](Cc1ncon1)c1nnc(C)n1-2 [Compound I-279] |  |  |  |  | < 500 nM | > 3000 nM | 1500 to 3000 nM | < 500 nM
20 | Cc1sc2c(c1C)C(c1ccc(CCOC3CCN(c4ncc(C(=O)N[C@H]5C(C)(C)[C@H](Oc6ccc(C#N)c(Cl)c6)C5(C)C)cn4)CC3)cc1)=NC(Cc1ncco1)c1nnc(C)n1-2 (stereo partly drawn) [Compound I-140] |  |  |  |  | < 500 nM | < 500 nM | < 500 nM | < 500 nM
21 | Cc1sc2c(c1C)C(c1ccc(N3CCC[C@H](C(=O)N4CCCC4c4ncc(C(=O)N[C@H]5C(C)(C)[C@H](Oc6ccc(C#N)c(Cl)c6)C5(C)C)cn4)C3)cc1)=N[C@@H](Cc1ncco1)c1nnc(C)n1-2 (stereo partly drawn) [Compound I-314] |  |  |  |  | < 500 nM | > 3000 nM | < 500 nM | < 500 nM
22 | Cc1sc2c(c1C)C(c1ccc(CCN3CC4(CCCN(c5ncc(C(=O)N[C@H]6C(C)(C)[C@H](Oc7ccc(C#N)c(Cl)c7)C6(C)C)cn5)C4)C3)cc1)=N[C@@H](Cc1ncco1)c1nnc(C)n1-2 [Compound I-272] |  |  |  |  | < 500 nM | 500 to 1500 nM | < 500 nM | < 500 nM
23 | Cc1sc2c(c1C)C(c1ccc(C(=O)N3CC[C@]4(CCCN(c5ncc(C(=O)N[C@H]6C(C)(C)[C@H](Oc7ccc(C#N)c(Cl)c7)C6(C)C)cn5)C4)C3)cc1)=N[C@@H](Cc1ncco1)c1nnc(C)n1-2 [Compound I-258] |  |  |  |  | < 500 nM | > 3000 nM | > 3000 nM | 1500 to 3000 nM
24 | Cc1sc2c(c1C)C(c1ccc(O[C@H]3CC[C@]4(CCN(c5ncc(C(=O)N[C@H]6C(C)(C)[C@H](Oc7ccc(C#N)c(Cl)c7)C6(C)C)cn5)C4)CC3)cc1)=N[C@@H](Cc1ncco1)c1nnc(C)n1-2 [Compound I-178] |  |  |  |  | < 500 nM | < 500 nM | < 500 nM | < 500 nM
25 | Cc1sc2c(c1C)C(c1ccc(CCN3CC[C@@]4(C3)CN(c3ncc(C(=O)N[C@H]5C(C)(C)[C@H](Oc6ccc(C#N)c(Cl)c6)C5(C)C)cn3)CCO4)cc1)=N[C@@H](Cc1ncco1)c1nnc(C)n1-2 [Compound I-243] |  |  |  |  | < 500 nM | < 500 nM | < 500 nM | < 500 nM
26 | Cc1sc2c(c1C)C(c1ccc(O[C@H]3C[C@@H](N(C(C)C)C4CCN(c5ncc(C(=O)N[C@H]6C(C)(C)[C@H](Oc7ccc(C#N)c(Cl)c7)C6(C)C)cn5)CC4)C3)cc1)=N[C@@H](Cc1ncco1)c1nnc(C)n1-2 [Compound I-281] |  |  |  |  | < 500 nM | 500 to 1500 nM | < 500 nM | < 500 nM
27 | Cc1sc2c(c1C)C(c1ccc(-c3scnc3OC3CCN(c4ncc(C(=O)N[C@H]5C(C)(C)[C@H](Oc6ccc(C#N)c(Cl)c6)C5(C)C)cn4)CC3)cc1)=N[C@@H](Cc1ncco1)c1nnc(C)n1-2 [Compound I-390] |  |  |  |  | < 500 nM | > 3000 nM | < 500 nM | > 3000 nM
